Results on two compounds are retold here after paper PMC7044277 (Nature Communications, 2020).

Each structure is given as a SMILES string. Several values for one entry are separate records, joined by “and”; a condition that tells them apart may be missing. Equal values may be shown once.

Common to all, as to format: cell-based
What all share (set-up): GPCRome screening signal at PTGIR / GPCRome screening signal at PTH1R / GPCRome screening signal at PTH2R / GPCRome screening signal at QRFP / GPCRome screening signal at RXFP2 / GPCRome screening signal at RXFP3 / GPCRome screening signal at RXFP4 / GPCRome screening signal at S1PR2 / GPCRome screening signal at S1PR3 / GPCRome screening signal at S1PR4 / GPCRome screening signal at S1PR5 / GPCRome screening signal at SCTR / GPCRome screening signal at SSTR2 / GPCRome screening signal at SSSTR / GPCRome screening signal at SSTR4 / GPCRome screening signal at SSTR5 / GPCRome screening signal at SUCNR1 / GPCRome screening signal at TA1 / GPCRome screening signal at TAAR2 / GPCRome screening signal at TAAR5 / GPCRome screening signal at TAAR6 / GPCRome screening signal at TAAR8 / GPCRome screening signal at TACR1 / GPCRome screening signal at TACR2 / GPCRome screening signal at TACR3 / GPCRome screening signal at TBXA2R / GPCRome screening signal at TSHR / GPCRome screening signal at UTS2R / GPCRome screening signal at VIPR2 / GPCRome screening signal at GPR68 no V2 Tail / GPCRome screening signal at GRM2 / GPCRome screening signal at GRM3: reference not given here

The target in experiment [1] is 320 non-olfactory GPCRs (Homo sapiens, UniProt P47872). The following applies: receptor SCTR.
Experiment [2] concerns the target 320 non-olfactory GPCRs (Homo sapiens, UniProt P30874). To be noted: receptor SSTR2.
Experiment [3] has as its target 320 non-olfactory GPCRs (Homo sapiens, UniProt P30872). The following applies: receptor SSTR1.
The target in experiment [4] is 320 non-olfactory GPCRs (Homo sapiens, UniProt P31391). To be noted: receptor SSTR4.
Where [5] appears, read: Fig_5f, single replicate values.
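Throughout, for GPCRome agonism screen response: fold over basal response of each receptor without drug.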

320 non-olfactory GPCRs (Homo sapiens, UniProt P30872), sequence (P30872 whole entry): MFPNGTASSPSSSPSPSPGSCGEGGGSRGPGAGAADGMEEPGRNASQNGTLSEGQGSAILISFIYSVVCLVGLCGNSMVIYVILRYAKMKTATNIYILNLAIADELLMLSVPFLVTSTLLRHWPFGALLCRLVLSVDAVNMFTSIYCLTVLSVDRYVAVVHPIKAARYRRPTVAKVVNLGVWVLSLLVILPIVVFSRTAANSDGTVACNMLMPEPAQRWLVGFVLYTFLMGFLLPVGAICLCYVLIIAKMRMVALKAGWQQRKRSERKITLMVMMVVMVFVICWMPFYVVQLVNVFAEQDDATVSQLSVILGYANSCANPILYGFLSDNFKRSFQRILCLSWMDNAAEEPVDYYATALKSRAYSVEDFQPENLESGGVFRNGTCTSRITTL
320 non-olfactory GPCRs (Homo sapiens, UniProt P47872), sequence (P47872 23-440): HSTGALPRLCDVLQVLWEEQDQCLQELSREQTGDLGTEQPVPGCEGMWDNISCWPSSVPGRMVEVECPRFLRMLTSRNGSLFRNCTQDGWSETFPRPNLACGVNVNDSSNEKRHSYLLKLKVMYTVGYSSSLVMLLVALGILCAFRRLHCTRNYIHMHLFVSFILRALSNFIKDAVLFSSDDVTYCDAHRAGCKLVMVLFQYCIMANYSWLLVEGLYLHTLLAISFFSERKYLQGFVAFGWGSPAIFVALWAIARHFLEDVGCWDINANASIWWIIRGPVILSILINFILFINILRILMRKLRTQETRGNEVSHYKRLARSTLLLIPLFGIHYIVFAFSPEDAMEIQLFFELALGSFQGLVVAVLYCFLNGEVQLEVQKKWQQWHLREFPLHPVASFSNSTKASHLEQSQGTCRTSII
320 non-olfactory GPCRs (Homo sapiens, UniProt P31391), sequence (P31391 whole entry): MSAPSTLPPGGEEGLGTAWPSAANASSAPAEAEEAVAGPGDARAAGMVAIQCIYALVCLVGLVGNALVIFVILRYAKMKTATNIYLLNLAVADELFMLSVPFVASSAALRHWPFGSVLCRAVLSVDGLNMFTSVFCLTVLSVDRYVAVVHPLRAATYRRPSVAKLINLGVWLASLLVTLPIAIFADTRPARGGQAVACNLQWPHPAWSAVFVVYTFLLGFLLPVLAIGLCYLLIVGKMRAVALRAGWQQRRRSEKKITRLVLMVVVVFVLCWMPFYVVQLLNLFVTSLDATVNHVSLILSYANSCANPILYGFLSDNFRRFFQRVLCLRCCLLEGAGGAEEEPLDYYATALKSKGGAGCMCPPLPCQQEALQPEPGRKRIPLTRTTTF
320 non-olfactory GPCRs (Homo sapiens, UniProt P30874), sequence (P30874 whole entry): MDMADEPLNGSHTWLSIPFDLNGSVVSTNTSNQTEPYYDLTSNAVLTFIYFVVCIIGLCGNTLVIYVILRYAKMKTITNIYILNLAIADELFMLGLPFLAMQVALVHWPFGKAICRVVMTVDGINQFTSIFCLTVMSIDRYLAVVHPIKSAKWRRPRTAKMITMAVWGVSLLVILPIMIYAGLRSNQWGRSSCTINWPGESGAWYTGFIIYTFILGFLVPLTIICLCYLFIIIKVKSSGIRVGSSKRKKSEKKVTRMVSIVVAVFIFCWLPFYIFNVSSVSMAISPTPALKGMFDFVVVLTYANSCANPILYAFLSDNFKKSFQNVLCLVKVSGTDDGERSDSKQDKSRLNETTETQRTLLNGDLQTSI

`CCOc1ccccc1CCC(C)NCC1(O)CCCCC1.Cl` (racemic) [Fig_5f]: the “GPCRome screening signal at SCTR” value on 320 non-olfactory GPCRs [1] (setting [5]) is 1.0412 and 0.8528 and 0.88 and 1.015. The “GPCRome screening signal at SSTR2” value on 320 non-olfactory GPCRs [2] (setting [5]) is 1.092 and 1.759 and 1.157 and 0.8246. At 320 non-olfactory GPCRs [3] (setting [5]), the “GPCRome screening signal at SSTR1” value was 2.563 and 1.311 and 1.193 and 0.9402. In addition, at 320 non-olfactory GPCRs [4] (setting [5]), the “GPCRome screening signal at SSTR4” value is 1.303 and 1.0005 and 1.096 and 1.043.

With `CCOc1cccc2cc(C(C)NCC3(O)CCCCC3)oc12` (centres unmarked) [O4LE6], the “GPCRome agonism screen response” value was 0.9841 and 0.1649 and 1.315 and 1.208 at 320 non-olfactory GPCRs [1] (replicate values, Fig_4g); 0.9255 and 0.9659 and 1.077 and 0.7883 on 320 non-olfactory GPCRs [2] (replicate values, Fig_4g); 1.245 and 0.3022 and 1.123 and 1.305 at 320 non-olfactory GPCRs [3] (replicate values, Fig_4g); 1.584 and 2.327 and 0.4288 and 0.2624 at 320 non-olfactory GPCRs [4] (replicate values, Fig_4g).
